The text below walks through data of patent publication US9115127B2 (AMGEN INC., priority 2010, dated 2015).

Structures can show the parent of a compound that is named as a salt.

For one experiment, the target named is T1, wild-type human ALK (cytoplasmic domain, amino acids 1058-1620, N-terminal GST fusion) (Homo sapiens, UniProt Q9UM73).
T1 construct: The cytoplasmic domain (amino acids 1058-1620) of wild-type human ALK; GST (N); made in house; host or cells: SF9 insect cells
T1 sequence (Q9UM73 1058-1620): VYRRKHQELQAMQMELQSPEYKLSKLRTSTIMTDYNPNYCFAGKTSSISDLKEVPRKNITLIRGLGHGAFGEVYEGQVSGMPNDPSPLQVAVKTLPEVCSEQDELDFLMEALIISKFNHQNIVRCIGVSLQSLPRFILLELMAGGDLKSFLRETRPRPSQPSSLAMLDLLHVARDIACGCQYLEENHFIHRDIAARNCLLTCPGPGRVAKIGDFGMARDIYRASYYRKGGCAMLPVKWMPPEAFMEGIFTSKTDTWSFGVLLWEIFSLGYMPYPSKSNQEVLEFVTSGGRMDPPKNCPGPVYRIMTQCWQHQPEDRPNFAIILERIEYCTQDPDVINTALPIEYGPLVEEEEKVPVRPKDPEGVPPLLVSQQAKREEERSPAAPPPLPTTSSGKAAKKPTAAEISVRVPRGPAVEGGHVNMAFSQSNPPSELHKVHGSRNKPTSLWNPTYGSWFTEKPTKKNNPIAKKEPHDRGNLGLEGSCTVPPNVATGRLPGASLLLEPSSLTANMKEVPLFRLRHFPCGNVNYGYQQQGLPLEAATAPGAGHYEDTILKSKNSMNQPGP
The experiment in a line: ALK Inhibition in Enzyme Assay (Lance TR-FRET kinase assay). The format is biochemical.
Settings: not given
Summed up: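 TR-FRET read-out (Eu-W1024 PT66 anti-phosphotyrosine plus streptavidin-allophycocyanin, 320 nm excitation) quantified biotinylated peptide phosphorylation by the purified kinase. Reaction ran 90 minutes at room temperature before quenching with 20 mM EDTA in Tris pH 7.5 buffer with NaCl, BSA and Tween-20.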
In turn, `CC(C)NC(=O)[C@H]1CC[C@@H](n2c(N)nc3ccc(CN4CCC(C(C)(C)O)CC4)cc32)CC1` [Example 136, cis-4-(2-Amino-6-((4-(2-hydroxypropan-2-yl)piperidin-1-yl)methyl)-1H-benzo[d]imidazol-1-yl)-N-isopropylcyclohexanecarboxamide] had an IC50 of 1000 to 5000 nM.

`O=C(Nc1nc2ccc(CN3CCCCC3)cc2n1[C@H]1CC[C@@H](C(=O)O)CC1)c1ccc(F)cc1` [Example 10, cis-4-(2-(4-Fluorobenzamido)-6-(piperidin-1-ylmethyl)-1H-benzo[d]imidazol-1-yl)cyclohexanecarboxylic acid hydrochloride] had an IC50 of 100 to 1000 nM.

`CC(C)NC(=O)[C@H]1CC[C@@H](n2/c(=N/C(=O)NC3CCCCC3)[nH]c3cnc(OCCN4CCCCC4)cc32)CC1` [Example 132, cis-4-((E)-2-(Cyclohexylcarbamoylimino)-6-(2-(piperidin-1-yl)ethoxy)-2,3-dihydro-1H-imidazo[4,5-c]pyridin-1-yl)-N-isopropylcyclohexanecarboxamide] gave an IC50 of 100 to 1000 nM.

In the case of `CC(C)NC(=O)[C@H]1CC[C@@H](n2/c(=N/C(=O)c3cccc(Cl)c3)[nH]c3cnc(OCCN4CCCCC4)cc32)CC1` [Example 119, (E)-3-Chloro-N-(1-(cis-4-(isopropylcarbamoyl)cyclohexyl)-6-(2-(piperidin-1-yl)ethoxy)-1H-imidazo[4,5-c]pyridin-2(3H)-ylidene)benzamide], the IC50 is less than 50 nM.

The compound `N#C[C@]1(c2ccccn2)C[C@@H](n2/c(=N/C(=O)c3ccc(F)cc3)[nH]c3cnc(OCCN4CCCCC4)cc32)C1` [Example 240, (E)-N-(1-(trans-3-Cyano-3-(pyridin-2-yl)cyclobutyl)-6-(2-(piperidin-1-yl)ethoxy)-1H-imidazo[4,5-c]pyridin-2(3H)-ylidene)-4-fluorobenzamide] had an IC50 of 1000 to 5000 nM.

`CC(C)NC(=O)[C@H]1CC[C@@H](n2/c(=N/C(=O)c3ccc(F)cc3)[nH]c3ccc(Cn4cccn4)cc32)CC1` [Example 197, (E)-N-(6-((1H-Pyrazol-1-yl)methyl)-1-(cis-4-(isopropylcarbamoyl)cyclohexyl)-1H-benzo[d]imidazol-2(3H)-ylidene)-4-fluorobenzamide] showed an IC50 of less than 50 nM.

`CC(C)NC(=O)[C@H]1CC[C@@H](n2/c(=N/C(=O)c3ccc(F)cc3)[nH]c3ccc(CN4CCC[C@@H]4C(=O)O)cc32)CC1` [Example 53, (R)-1-(((E)-2-(4-Fluorobenzoylimino)-3-(cis-4-(isopropylcarbamoyl)cyclohexyl)-2,3-dihydro-1H-benzo[d]imidazol-5-yl)methyl)pyrrolidine-2-carboxylic acid hydrochloride]: the IC50 was less than 50 nM.

Take `CC(C)NC(=O)[C@H]1CC[C@@H](n2/c(=N/C(=O)c3cccc(C#N)c3)[nH]c3cnc(OCCN4CCCCC4)cc32)CC1` [Example 91, (E)-3-Cyano-N-(1-(cis-4-(isopropylcarbamoyl)cyclohexyl)-6-(2-(piperidin-1-yl)ethoxy)-1H-imidazo[4,5-c]pyridin-2(3H)-ylidene)benzamide]: the IC50 was less than 50 nM.

Compound `CC(C)NC(=O)[C@H]1CC[C@@H](n2/c(=N/C(=O)c3ccc(F)cc3)[nH]c3ccc(CN4CCC(C)(O)CC4)cc32)CC1` [Example 183, (E)-4-Fluoro-N-(6-((4-hydroxy-4-methylpiperidin-1-yl)methyl)-1-(cis-4-(isopropylcarbamoyl)cyclohexyl)-1H-benzo[d]imidazol-2(3H)-ylidene)benzamide] gave a half-maximal inhibitory concentration (IC50) of less than 50 nM.

Turning to `CC(C)NC(=O)[C@H]1CC[C@@H](n2/c(=N/C(=O)N3CCCC3)[nH]c3cnc(OCCN4CCCCC4)cc32)CC1` [Example 134, (E)-N-(1-(cis-4-(Isopropylcarbamoyl)cyclohexyl)-6-(2-(piperidin-1-yl)ethoxy)-1H-imidazo[4,5-c]pyridin-2(3H)-ylidene)pyrrolidine-1-carboxamide], the IC50 was in the range of 50 to 100 nM.

Turning to `N#C[C@]1(c2cccc(Br)c2)C[C@@H](n2/c(=N/C(=O)c3ccc(F)cc3)[nH]c3cnc(OCCN4CCCCC4)cc32)C1` [Example 250, (E)-N-(1-(trans-3-(3-Bromophenyl)-3-cyanocyclobutyl)-6-(2-(piperidin-1-yl)ethoxy)-1H-imidazo[4,5-c]pyridin-2(3H)-ylidene)-4-fluorobenzamide], the IC50 was 100 to 1000 nM.

`CC(C)NC(=O)[C@H]1CC[C@@H](n2/c(=N/C(=O)c3ccc(F)cc3)[nH]c3cc(F)c(OCCN4CCOCC4)cc32)CC1` [Example 166, (E)-4-Fluoro-N-(5-fluoro-1-(cis-4-(isopropylcarbamoyl)cyclohexyl)-6-(2-morpholinoethoxy)-1H-benzo[d]imidazol-2(3H)-ylidene)benzamide] showed a half-inhibitory concentration (IC50) of less than 50 nM.

`O=C(/N=c1\[nH]c2cnc(OCCN3CCCCC3)cc2n1[C@H]1CC[C@@H](C(=O)O)CC1)c1ccccc1` [Example 25, cis-4-((E)-2-(Benzoylimino)-6-(2-(piperidin-1-yl)ethoxy)-2,3-dihydro-1H-imidazo[4,5-c]pyridin-1-yl)cyclohexanecarboxylic acid]: the IC50 is 1000 to 5000 nM.

`CC(C)NC(=O)[C@H]1CC[C@@H](n2/c(=N/C(=O)c3ccc(F)cc3)[nH]c3ccc(Cn4cnnc4)cc32)CC1` [Example 195, (E)-N-(6-((4H-1,2,4-Triazol-4-yl)methyl)-1-(cis-4-(isopropylcarbamoyl)cyclohexyl)-1H-benzo[d]imidazol-2(3H)-ylidene)-4-fluorobenzamide]: the concentration for half-maximal inhibition (IC50) is less than 50 nM.

`CC(C)(O)C1CCN(Cc2ccc3[nH]/c(=N\C(=O)c4ccc(F)cc4)n([C@H]4CC[C@H](C(N)=O)CC4)c3c2)CC1` [Example 233, (E)-N-(1-(trans-4-Carbamoylcyclohexyl)-6-((4-(2-hydroxypropan-2-yl)piperidin-1-yl)methyl)-1H-benzo[d]imidazol-2(3H)-ylidene)-4-fluorobenzamide] gave an IC50 of 50 to 100 nM.

Take `CC(C)NC(=O)[C@H]1CC[C@@H](n2/c(=N/C(=O)c3ccc(F)cc3)[nH]c3cnc(S(C)(=O)=O)cc32)CC1` [Example 236, (E)-4-Fluoro-N-(1-(cis-4-(isopropylcarbamoyl)cyclohexyl)-6-(methylsulfonyl)-1H-imidazo[4,5-c]pyridin-2(3H)-ylidene)benzamide]: the IC50 is less than 50 nM.

In the case of `C=CCNS(=O)(=O)c1cc(C(=O)/N=c2\[nH]c3ccc(CN4CCCCC4)cc3n2[C@H]2CC[C@@H](C(N)=O)CC2)ccc1F` [Example 38, (E)-3-(N-Allylsulfamoyl)-N-(1-(cis-4-carbamoylcyclohexyl)-6-(piperidin-1-ylmethyl)-1H-benzo[d]imidazol-2(3H)-ylidene)-4-fluorobenzamide], the IC50 was less than 50 nM.

`CCOC(=O)[C@H]1CC[C@@H](n2/c(=N/C(=O)c3ccccc3)[nH]c3ccc(CO)cc32)CC1` [Example 7, cis-Ethyl 4-((E)-2-(benzoylimino)-6-(hydroxymethyl)-2,3-dihydro-1H-benzo[d]imidazol-1-yl)cyclohexanecarboxylate] yielded a concentration for half-maximal inhibition (IC50) of less than 50 nM.

For `CONC(=O)[C@H]1CC[C@@H](n2/c(=N/C(=O)c3ccc(F)cc3)[nH]c3ccc(CN4CCC(C(C)(C)O)CC4)cc32)CC1` [Example 213, (E)-4-Fluoro-N-(6-((4-(2-hydroxypropan-2-yl)piperidin-1-yl)methyl)-1-(cis-4-(methoxycarbamoyl)cyclohexyl)-1H-benzo[d]imidazol-2(3H)-ylidene)benzamide], the IC50 is less than 50 nM.

The compound `CC(C)NC(=O)[C@H]1CC[C@@H](n2/c(=N/C(=O)c3ccncc3)[nH]c3cnc(OCCN4CCCCC4)cc32)CC1` [Example 90, (E)-N-(1-(cis-4-(Isopropylcarbamoyl)cyclohexyl)-6-(2-(piperidin-1-yl)ethoxy)-1H-imidazo[4,5-c]pyridin-2(3H)-ylidene)isonicotinamide] returned an IC50 of less than 50 nM.

Regarding `CC(C)NC(=O)[C@H]1CC[C@@H](n2/c(=N/C(=O)c3ccc(F)cc3)[nH]c3cnc(N4CCN(C)CC4)cc32)CC1` [Example 225, (E)-4-Fluoro-N-(1-(cis-4-(isopropylcarbamoyl)cyclohexyl)-6-(4-methylpiperazin-1-yl)-1H-imidazo[4,5-c]pyridin-2(3H)-ylidene)benzamide], the IC50 was less than 50 nM.

`CCNC(=O)[C@H]1CC[C@@H](n2/c(=N/C(=O)c3ccccc3)[nH]c3cnc(OCCN4CCCCC4)cc32)CC1` [Example 26]: the IC50 was less than 50 nM.

With `CC(C)(C)NC(=O)[C@H]1CC[C@@H](n2/c(=N/C(=O)c3ccc(F)cc3)[nH]c3ccc(CN4CCC(C(C)(C)O)CC4)cc32)CC1` [Example 215, (E)-N-(1-(cis-4-(tert-Butylcarbamoyl)cyclohexyl)-6-((4-(2-hydroxypropan-2-yl)piperidin-1-yl)methyl)-1H-benzo[d]imidazol-2(3H)-ylidene)-4-fluorobenzamide], the IC50 was less than 50 nM.

The compound `CC(C)S(=O)(=O)N1CCC(n2/c(=N/C(=O)c3ccccc3)[nH]c3cnc(OCCN4CCCCC4)cc32)CC1` [Example 69, (E)-N-(1-(1-(Isopropylsulfonyl)piperidin-4-yl)-6-(2-(piperidin-1-yl)ethoxy)-1H-imidazo[4,5-c]pyridin-2(3H)-ylidene)benzamide] gave a concentration for half-maximal inhibition (IC50) of 100 to 1000 nM.

`CC(C)(O)CNC(=O)[C@H]1CC[C@@H](n2/c(=N/C(=O)c3ccc(F)cc3)[nH]c3ccc(CN4CCOCC4)cc32)CC1` [Example 206, (E)-4-Fluoro-N-(1-(cis-4-(2-hydroxy-2-methylpropylcarbamoyl)-cyclohexyl)-6-(morpholinomethyl)-1H-benzo[d]imidazol-2(3H)-ylidene)benzamide]: the IC50 lay within 50 to 100 nM.

The same experiment, now with this note: 2 nM enzyme, ATP 40 μM (Km apparent), 90 minutes at room temperature; mean of three replicates.
Consider `C=CCNS(=O)(=O)c1cccc(C(=O)/N=c2\[nH]c3cnc(OCCN4CCCCC4)cc3n2C2CCC(C(=O)NC)CC2)c1` [Example 245, (E)-3-(N-Allylsulfamoyl)-N-(1-((1R,4R)-4-(methylcarbamoyl)cyclohexyl)-6-(2-(piperidin-1-yl)ethoxy)-1H-imidazo[4,5-c]pyridin-2(3H)-ylidene)benzamide], for which the IC50 was in the range of 50 to 100 nM.
